# Key:
# Assay in all cases: relative viability (nuclei count vs DMSO), 5 days (fraction); higher = more cells survive
# NCI-H441 = tested on: NCI-H441
# Procedure, shortened: (§1)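 Lung cancer cell lines, seeded in 1536-well plates, were treated the following day by pin tool with a single drug or with five library-drug doses (not always all listed) in √10 steps on top of a fixed anchor-drug dose. Cells were fixed and nuclei stained in one step after 5 days, and nuclei were counted. Relative viability is the nuclei count for treated wells divided by that for vehicle wells, reported as medians of duplicate plates.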
# EKVX = tested on: EKVX
# Procedure, shortened: as §1
# NCI-H727 = tested on: NCI-H727
# Procedure, shortened: as §1
# NCI-H460 = tested on: NCI-H460
# Procedure, shortened: as §1
# HCC-366 = tested on: HCC-366
# Procedure, shortened: as §1
# SW 900 = tested on: SW 900
# Procedure, shortened: as §1
# BEN = tested on: BEN
# Procedure, shortened: as §1
# LK-2 = tested on: LK-2
# Procedure, shortened: as §1
# NCI-H3122 = tested on: NCI-H3122
# Procedure, shortened: as §1
# CAL-12T = tested on: CAL-12T
# Procedure, shortened: as §1
# ABC-1 = tested on: ABC-1
# Procedure, shortened: as §1
# NCI-H1650 = tested on: NCI-H1650
# Procedure, shortened: as §1
# NCI-H2170 = tested on: NCI-H2170
# Procedure, shortened: as §1
# LOU-NH91 = tested on: LOU-NH91
# Procedure, shortened: as §1
# NCI-H1437 = tested on: NCI-H1437
# Procedure, shortened: as §1
# NCI-H661 = tested on: NCI-H661
# Procedure, shortened: as §1
# NCI-H1666 = tested on: NCI-H1666
# Procedure, shortened: as §1
# PC-14 = tested on: PC-14
# Procedure, shortened: as §1
# NCI-H2009 = tested on: NCI-H2009
# Procedure, shortened: as §1
# HARA = tested on: HARA
# Procedure, shortened: as §1
# COR-L 105 = tested on: COR-L 105
# Procedure, shortened: as §1
# 201T = tested on: 201T
# Procedure, shortened: as §1
smiles,measurement,setting,value
CC(=O)O[C@@]12CO[C@@H]1C[C@H](O)[C@@]1(C)C(=O)[C@H](O)C3=C(C)[C@@H](OC(=O)[C@H](O)[C@@H](NC(=O)OC(C)(C)C)c4ccccc4)C[C@@](O)([C@@H](OC(=O)c4ccccc4)[C@H]21)C3(C)C [Docetaxel] + N=C(N)NC(=N)NCCc1ccccc1 [Phenformin] (partner 250 µM),relative viability,NCI-H441; first compound 0.0002 µM,0.833
same,relative viability,NCI-H441; first compound 0.000632 µM,0.889
same,relative viability,NCI-H441; first compound 0.002 µM,0.315
same,relative viability,NCI-H441; first compound 0.006325 µM,0.281
same,relative viability,NCI-H441; first compound 0.02 µM,0.197
same,relative viability,EKVX; first compound 0.0002 µM,0.264
same,relative viability,EKVX; first compound 0.000632 µM,0.218
same,relative viability,EKVX; first compound 0.002 µM,0.191
same,relative viability,EKVX; first compound 0.006325 µM,0.149
same,relative viability,EKVX; first compound 0.02 µM,0.137
same,relative viability,NCI-H727; first compound 0.0002 µM,0.49
same,relative viability,NCI-H727; first compound 0.000632 µM,0.601
same,relative viability,NCI-H727; first compound 0.002 µM,0.457
same,relative viability,NCI-H727; first compound 0.006325 µM,0.472
same,relative viability,NCI-H727; first compound 0.02 µM,0.354
same,relative viability,NCI-H460; first compound 0.0002 µM,0.481
same,relative viability,NCI-H460; first compound 0.000632 µM,0.351
same,relative viability,NCI-H460; first compound 0.002 µM,0.0311
same,relative viability,NCI-H460; first compound 0.006325 µM,0.0221
same,relative viability,NCI-H460; first compound 0.02 µM,0.0125
same,relative viability,HCC-366; first compound 0.0002 µM,0.599
same,relative viability,HCC-366; first compound 0.000632 µM,0.253
same,relative viability,HCC-366; first compound 0.002 µM,0.147
same,relative viability,HCC-366; first compound 0.006325 µM,0.0428
same,relative viability,HCC-366; first compound 0.02 µM,0.0275
same,relative viability,SW 900; first compound 0.0002 µM,0.389
same,relative viability,SW 900; first compound 0.000632 µM,0.235
same,relative viability,SW 900; first compound 0.002 µM,0.262
same,relative viability,SW 900; first compound 0.006325 µM,0.167
same,relative viability,SW 900; first compound 0.02 µM,0.0976
same,relative viability,BEN; first compound 0.0002 µM,0.248
same,relative viability,BEN; first compound 0.000632 µM,0.253
same,relative viability,BEN; first compound 0.002 µM,0.307
same,relative viability,BEN; first compound 0.006325 µM,0.215
same,relative viability,BEN; first compound 0.02 µM,0.194
same,relative viability,LK-2; first compound 0.0002 µM,0.369
same,relative viability,LK-2; first compound 0.000632 µM,0.27
same,relative viability,LK-2; first compound 0.002 µM,0.118
same,relative viability,LK-2; first compound 0.006325 µM,0.153
same,relative viability,LK-2; first compound 0.02 µM,0.124
same,relative viability,NCI-H3122; first compound 0.0002 µM,0.368
same,relative viability,NCI-H3122; first compound 0.000632 µM,0.345
same,relative viability,NCI-H3122; first compound 0.002 µM,0.261
same,relative viability,NCI-H3122; first compound 0.006325 µM,0.152
same,relative viability,NCI-H3122; first compound 0.02 µM,0.139
same,relative viability,CAL-12T; first compound 0.0002 µM,0.522
same,relative viability,CAL-12T; first compound 0.000632 µM,0.305
same,relative viability,CAL-12T; first compound 0.002 µM,0.185
same,relative viability,CAL-12T; first compound 0.006325 µM,0.135
same,relative viability,CAL-12T; first compound 0.02 µM,0.118
same,relative viability,ABC-1; first compound 0.0002 µM,0.27
same,relative viability,ABC-1; first compound 0.000632 µM,0.226
same,relative viability,ABC-1; first compound 0.002 µM,0.232
same,relative viability,ABC-1; first compound 0.006325 µM,0.223
same,relative viability,ABC-1; first compound 0.02 µM,0.212
same,relative viability,NCI-H1650; first compound 0.0002 µM,0.349
same,relative viability,NCI-H1650; first compound 0.000632 µM,0.287
same,relative viability,NCI-H1650; first compound 0.006325 µM,0.147
same,relative viability,NCI-H1650; first compound 0.02 µM,0.0956
same,relative viability,NCI-H2170; first compound 0.0002 µM,0.405
same,relative viability,NCI-H2170; first compound 0.000632 µM,0.428
same,relative viability,NCI-H2170; first compound 0.002 µM,0.267
same,relative viability,NCI-H2170; first compound 0.006325 µM,0.217
same,relative viability,NCI-H2170; first compound 0.02 µM,0.174
same,relative viability,LOU-NH91; first compound 0.0002 µM,0.661
same,relative viability,LOU-NH91; first compound 0.000632 µM,0.625
same,relative viability,LOU-NH91; first compound 0.002 µM,0.41
same,relative viability,LOU-NH91; first compound 0.006325 µM,0.317
same,relative viability,LOU-NH91; first compound 0.02 µM,0.269
same,relative viability,NCI-H1437; first compound 0.0002 µM,0.3
same,relative viability,NCI-H1437; first compound 0.000632 µM,0.294
same,relative viability,NCI-H1437; first compound 0.002 µM,0.23
same,relative viability,NCI-H1437; first compound 0.006325 µM,0.154
same,relative viability,NCI-H1437; first compound 0.02 µM,0.123
same,relative viability,NCI-H661; first compound 0.0002 µM,0.334
same,relative viability,NCI-H661; first compound 0.000632 µM,0.32
same,relative viability,NCI-H661; first compound 0.002 µM,0.317
same,relative viability,NCI-H661; first compound 0.006325 µM,0.267
same,relative viability,NCI-H661; first compound 0.02 µM,0.221
same,relative viability,NCI-H1666; first compound 0.0002 µM,0.47
same,relative viability,NCI-H1666; first compound 0.000632 µM,0.515
same,relative viability,NCI-H1666; first compound 0.002 µM,0.537
same,relative viability,NCI-H1666; first compound 0.006325 µM,0.382
same,relative viability,NCI-H1666; first compound 0.02 µM,0.337
same,relative viability,PC-14; first compound 0.0002 µM,0.575
same,relative viability,PC-14; first compound 0.000632 µM,0.212
same,relative viability,PC-14; first compound 0.002 µM,0.129
same,relative viability,PC-14; first compound 0.006325 µM,0.0718
same,relative viability,PC-14; first compound 0.02 µM,0.0382
same,relative viability,NCI-H2009; first compound 0.0002 µM,0.483
same,relative viability,NCI-H2009; first compound 0.000632 µM,0.526
same,relative viability,NCI-H2009; first compound 0.002 µM,0.463
same,relative viability,NCI-H2009; first compound 0.006325 µM,0.321
same,relative viability,NCI-H2009; first compound 0.02 µM,0.202
same,relative viability,HARA; first compound 0.0002 µM,0.387
same,relative viability,HARA; first compound 0.000632 µM,0.19
same,relative viability,HARA; first compound 0.002 µM,0.0801
same,relative viability,HARA; first compound 0.006325 µM,0.0508
same,relative viability,HARA; first compound 0.02 µM,0.0419
same,relative viability,COR-L 105; first compound 0.0002 µM,0.431
same,relative viability,COR-L 105; first compound 0.000632 µM,0.392
same,relative viability,COR-L 105; first compound 0.002 µM,0.279
same,relative viability,COR-L 105; first compound 0.006325 µM,0.267
same,relative viability,COR-L 105; first compound 0.02 µM,0.247
same,relative viability,201T; first compound 0.0002 µM,0.4
same,relative viability,201T; first compound 0.000632 µM,0.366
same,relative viability,201T; first compound 0.002 µM,0.36
same,relative viability,201T; first compound 0.006325 µM,0.342
same,relative viability,201T; first compound 0.02 µM,0.242

# Reference: the supplement of paper PMC10307832
